Laboratory results: patent US7713971B2, “1,2,4-triazine derivatives, preparation and use thereof in human therapy” (Pierre Fabre Medicament, priority 2005, dated 2010)
Like-named read-outs stand apart in the source and are kept apart here.

What was measured:
human PPARδ = target: T1, human PPARδ (Homo sapiens, UniProt Q03181); assay: Reporter gene transactivation, hPPAR-GAL4 delta; type: cell-based; conditions: transfected Cos-7 cells, Gal-4 luciferase reporter, 24 hours treatment
T1 construct: expressed in transfected cells; host or cells: Cos-7 cells (ATCC, CRL-1651)
T1 sequence (Q03181 211-439 limits assumed): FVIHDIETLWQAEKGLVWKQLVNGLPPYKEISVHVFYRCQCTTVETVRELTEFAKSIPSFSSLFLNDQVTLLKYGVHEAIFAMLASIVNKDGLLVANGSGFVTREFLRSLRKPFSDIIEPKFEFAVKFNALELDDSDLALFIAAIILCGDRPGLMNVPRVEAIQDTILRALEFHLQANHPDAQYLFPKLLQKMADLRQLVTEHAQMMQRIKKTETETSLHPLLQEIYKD

human PPARγ = target: T2, human PPARγ (Homo sapiens, UniProt P37231); assay: Reporter gene transactivation, hPPAR-GAL4 gamma; type: cell-based; conditions: transfected Cos-7 cells, Gal-4 luciferase reporter, 24 hours treatment
T2 construct: expressed in transfected cells; host or cells: Cos-7 cells (ATCC, CRL-1651)
T2 sequence (P37231 238-503 limits assumed): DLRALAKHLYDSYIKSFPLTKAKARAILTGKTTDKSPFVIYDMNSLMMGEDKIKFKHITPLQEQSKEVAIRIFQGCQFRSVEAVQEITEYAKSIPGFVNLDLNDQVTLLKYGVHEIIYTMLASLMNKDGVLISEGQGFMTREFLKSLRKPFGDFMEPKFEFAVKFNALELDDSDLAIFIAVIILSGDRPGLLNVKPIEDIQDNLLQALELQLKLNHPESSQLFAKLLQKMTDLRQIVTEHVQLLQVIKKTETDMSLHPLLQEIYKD

human PPARα = target: T3, human PPARα (Homo sapiens, UniProt Q07869); assay: Reporter gene transactivation, hPPAR-GAL4 alpha; type: cell-based; conditions: transfected Cos-7 cells, Gal-4 luciferase reporter, 24 hours treatment
T3 construct: expressed in transfected cells; host or cells: Cos-7 cells (ATCC, CRL-1651)
T3 sequence (Q07869 239-466 limits assumed): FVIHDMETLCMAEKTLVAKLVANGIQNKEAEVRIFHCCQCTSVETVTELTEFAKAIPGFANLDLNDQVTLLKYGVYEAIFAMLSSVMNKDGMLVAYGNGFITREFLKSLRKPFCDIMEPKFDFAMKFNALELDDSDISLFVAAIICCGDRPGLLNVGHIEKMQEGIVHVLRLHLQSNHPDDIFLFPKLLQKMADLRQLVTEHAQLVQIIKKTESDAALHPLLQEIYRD

[1] = tested on: insulin-resistant male rat (Ico: ZUCKER-fa/fa); assay: Normalization of metabolic parameters (cholesterol, plasma triglycerides) in insulin-resistant rat; type: in vivo; conditions: oral route, once per day for four days, Zucker fa/fa rat unfed 16-18 hours; for change in vivo at 2.5 mg/kg / change in vivo at 10 mg/kg: 96 h
Experimental: Normalization of metabolic parameters (cholesterol, plasma triglycerides) in an insulin-resistant male rat (Ico: ZUCKER-fa/fa), unfed for 16-18 hours, after treatment by oral route, once per day for four days, with the compounds to be evaluated or their administration vehicle.
These metabolic parameters are measured by spectrophotometry at the beginning and the end of each animal's treatment.

[2] = at 2.5 mg/kg, read-out: Plasma cholesterol
[3] = at 10 mg/kg, read-out: Plasma cholesterol
[4] = at 2.5 mg/kg, read-out: Plasma triglycerides
[5] = at 10 mg/kg, read-out: Plasma triglycerides

SMILES | EC50 (human PPARδ) [µM] | EC50 (human PPARγ) [µM] | EC50 (human PPARα) [µM] | change in vivo at 2.5 mg/kg [1, 2] [%] | change in vivo at 10 mg/kg [1, 3] [%] | Plasma triglycerides ([1]; at 10 mg/kg) | change in vivo at 2.5 mg/kg [1, 4] [%] | change in vivo at 10 mg/kg [1, 5] [%] | Plasma triglycerides ([1]; at 2.5 mg/kg)
CCCCCCCn1nc(OCCCc2ccc(OC(C)(C)C(=O)OCC)cc2)c(=O)n(C)c1=O [Example 27, Ethyl 2-{4-[3-(2-heptyl-4-methyl-3,5-dioxo-2,3,4,5-tetrahydro-[1,2,4]triazin-6-yloxy)-propyl]-phenoxy}-2-methyl-propionate] | 3 to 10 | 3 to 10 | ~3 | – | – | – | – | – | –
CCCCCCCn1nc(OCCCCc2ccc(OC(C)(C)C(=O)OCC)cc2)c(=O)n(C)c1=O [Example 29, Ethyl 2-{4-[4-(2-heptyl-4-methyl-3,5-dioxo-2,3,4,5-tetrahydro-[1,2,4]triazin-6-yloxy)-butyl]-phenoxy}-2-methyl-propionate] | 3 to 10 | 3 to 10 | 3 to 10 | – | – | – | – | – | –
CCOC(=O)C(C)(C)Oc1cccc(CCCCNc2nn(CCC#N)c(=O)n(CCCC(F)(F)F)c2=O)c1 [Example 81, Ethyl 2-(3-{4-[2-(2-cyano-ethyl)-3,5-dioxo-4-(4,4,4-trifluoro-butyl)-2,3,4,5-tetrahydro-[1,2,4]triazin-6-ylamino]-butyl}-phenoxy)-2-methyl-propionate] | – | > 10 | 0.3 to 1 | – | -12 | – | – | -17 | –
CCOC(=O)C(C)(C)Sc1cccc(CCCCNc2nn(C)c(=O)n(CCCC(F)(F)F)c2=O)c1 [Example 95] | – | > 10 | 1 to 3 | -18 | -40 | inactive at .10 | – | – | –
CCCCCCCn1c(=O)c(NCCc2ccc(OC(C)(C)C(=O)OCC)cc2)nn(C)c1=O [Example 106, Ethyl 2-{4-[2-(4-heptyl-2-methyl-3,5-dioxo-2,3,4,5-tetrahydro-[1,2,4]triazin-6-ylamino)-ethyl]-phenoxy}-2-methyl-propionate] | > 10 | – | ~1 | – | – | – | – | – | –
CCCCCCCn1nc(NCCc2ccc(OC(C)(C)C(=O)OCC)cc2)c(=O)n(Cc2ccccc2)c1=O [Example 109, Ethyl 2-{4-[2-(4 benzyl-2-heptyl-3,5-dioxo-2,3,4,5-tetrahydro-[1,2,4]triazin-6-ylamino)-ethyl]-phenoxy}-2-methyl-propionate] | 3 to 10 | – | ~1 | – | – | – | – | – | –
CCOC(=O)C(C)(C)Oc1ccc(CCNc2nn(COCc3ccccc3)c(=O)n(COCc3ccccc3)c2=O)cc1 [Example 110, Ethyl 2-{4-[2-(2,4-bis-benzyloxymethyl-3,5-dioxo-2,3,4,5-tetrahydro-[1,2,4]triazin-6-ylamino)ethyl]-phenoxy}-2-methyl-propionate] | > 10 | – | 1 to 3 | – | – | – | – | – | –
CCOC(=O)C(C)(C)Oc1ccc(CCN(CCCc2ccccc2)c2nn(C)c(=O)n(C)c2=O)cc1 [Example 115, Ethyl 2-(4-{2-[(2,4-dimethyl-3,5-dioxo-2,3,4,5-tetrahydro-[1,2,4]triazin-6-yl)-(3-phenylpropyl)-amino]-ethyl}-phenoxy)-2-methyl-propionate] | > 10 | – | ~3 | – | – | – | – | – | –
CCCCCCCn1nc(NCCc2ccc(SC(C)(C)C(=O)O)cc2)c(=O)n(C)c1=O [Example 120, 2-{4-[2-(2-Heptyl-4-methyl-3,5-dioxo-2,3,4,5-tetrahydro-[1,2,4]triazin-6-ylamino)-ethyl]-phenylsulfanyl}-2-methyl-propionic Acid] | – | 1 to 3 | 0.3 to 1 | -32 | -33 | – | -27 | -73 | –
CC(C)(Oc1ccc(C(=O)c2ccc(Cl)cc2)cc1)C(=O)O [Fenofibric acid, reference compound] | > 100 | – | 16.9 | – | – | – | – | – | –

Continued, in another order:

EC50 (human PPARδ) [µM] | EC50 (human PPARγ) [µM] | EC50 (human PPARα) [µM] | SMILES | change in vivo at 2.5 mg/kg [1, 2] [%] | change in vivo at 10 mg/kg [1, 3] [%] | Plasma triglycerides ([1]; at 10 mg/kg) | change in vivo at 2.5 mg/kg [1, 4] [%] | change in vivo at 10 mg/kg [1, 5] [%] | Plasma triglycerides ([1]; at 2.5 mg/kg)
~10 | ~1 | 0.01 to 0.03 | CCCCn1c(=O)c(OCCCCCc2cccc(OC(C)(C)C(=O)OCC)c2)nn(CCCC(F)(F)F)c1=O [Example 14, Ethyl 2-(3-{5-[4-Butyl-3,5-dioxo-2-(4,4,4-trifluoro-butyl)-2,3,4,5-tetrahydro-[1,2,4]triazin-6-yloxy]-pentyl}-phenoxy)-2-methyl-propionate] | – | – | – | – | – | –
– | 3 to 10 | ~0.3 | CCOC(=O)C(C)(C)Oc1cccc(CCCCNc2nn(C)c(=O)n(CCCC(F)(F)F)c2=O)c1 [Example 77, Ethyl 2-methyl-2-(3-{4-[2-methyl-3,5-dioxo-4-(4,4,4-trifluoro-butyl)-2,3,4,5-tetrahydro-[1,2,4]triazin-6-ylamino]-butyl}-phenoxy)-propionate] | -29 | -35 | active at 10 mg/kg | – | – | –
– | 3 to 10 | ~0.03 | Cn1nc(NCCCCc2cccc(OC(C)(C)C(=O)O)c2)c(=O)n(CCCC(F)(F)F)c1=O [Example 79, 2-Methyl-2-(3-{4-[2-methyl-3,5-dioxo-4-(4,4,4-trifluoro-butyl)-2,3,4,5-tetrahydro-[1,2,4]triazin-6-ylamino]-butyl}-phenoxy)-propionic Acid] | -32 | – | – | -55 | – | –
– | 0.1 to 0.3 | ~0.01 | CCCCCCCn1nc(NCCCCc2cccc(OC(C)(C)C(=O)OCC)c2)c(=O)n(CCCC(F)(F)F)c1=O [Example 82, Ethyl 2-(3-{4-[2-heptyl-3,5-dioxo-4-(4,4,4-trifluoro-butyl)-2,3,4,5-tetrahydro-[1,2,4]triazin-6-ylamino]-butyl}-phenoxy)-2-methyl-propionate] | – | -13 | active at 10 mg/kg | – | – | –
– | 1 to 3 | ~0.03 | CCCCCCCn1c(=O)c(NCCCCc2cccc(OC(C)(C)C(=O)OCC)c2)nn(CCCC(F)(F)F)c1=O [Example 85, Ethyl 2-(3-{4-[4-heptyl-3,5-dioxo-2-(4,4,4-trifluoro-butyl)-2,3,4,5-tetrahydro-[1,2,4]triazin-6-ylamino]-butyl}-phenoxy)-2-methyl-propionate] | – | -21 | active at 10 mg/kg | – | – | –
– | 3 to 10 | 0.003 to 0.01 | CCOC(=O)C(C)(C)Oc1cccc(CCCCCNc2nn(CCCC(F)(F)F)c(=O)n(CCCC(F)(F)F)c2=O)c1 [Example 92, Ethyl 2-(3-{5-[3,5-dioxo-2,4-bis-(4,4,4-trifluoro-butyl)-2,3,4,5-tetrahydro-[1,2,4]triazin-6-ylamino]-pentyl}-phenoxy)-2-methyl-propionate] | – | -18 | inactive at 10 | – | – | –
– | 0.3 | 0.3 | CCCCCCCn1nc(NCCc2ccc(SC(C)(C)C(=O)OCC)cc2)c(=O)n(C)c1=O [Example 119, Ethyl 2-{4-[2-(2-heptyl-4-methyl-3,5-dioxo-2,3,4,5-tetrahydro-[1,2,4]triazin-6-ylamino)-ethyl]-phenylsulfanyl}-2-methyl-propionate] | -21 | -32 | – | – | -29 | active at 2.5
– | 1 to 3 | 0.03 to 0.1 | CCCCCCCn1nc(NCCc2ccc(SC(C)(C)C(=O)O)cc2)c(=O)n(CCCC)c1=O [Example 121, 2-{4-[2-(4-Butyl-2-heptyl-3,5-dioxo-2,3,4,5-tetrahydro-[1,2,4]triazin-6-ylamino)-ethyl]-phenylsulfanyl}-2-methyl-propionic Acid] | -7 | – | – | -24 | – | –
> 10 | – | ~0.3 | CCCCCCCn1c(=O)c(NCCc2ccc(SC(C)(C)C(=O)OCC)cc2)nn(C)c1=O [Example 122, Ethyl 2-{4-[2-(4-heptyl-2-methyl-3,5-dioxo-2,3,4,5-tetrahydro-[1,2,4]triazin-6-ylamino)-ethyl]-phenylsulfanyl}-2-methyl-propionate] | – | -22 | – | – | -35 | –
– | ~10 | 0.1 to 0.3 | CCCCCCCn1c(=O)c(NCCc2ccc(SC(C)(C)C(=O)O)cc2)nn(CCCC(F)(F)F)c1=O [Example 123, 2-(4-{2-[4-Heptyl-3,5-dioxo-2-(4,4,4-trifluoro-butyl)-2,3,4,5-tetrahydro-[1,2,4]triazin-6-ylamino]-ethyl}-phenylsulfanyl)-2-methyl-propionic Acid] | -8 | -14 | – | -6 | -20 | –
